Results published in paper PMC9190144, “Phytochemistry, anti-diabetic and antioxidant potentials of Allium consanguineum Kunth” (BMC Complementary Medicine and Therapies, 2022).
Values joined by “and” are separate entries in the source; they are usually repeats but may differ in a detail not shown here. Equal values may be shown once.

What was measured:
[1] = system: alloxan-induced diabetic albino mice; assay: In-vivo anti-diabetic study in alloxan-induced diabetic mice; settings: for Decrease in Blood Glucose: 0 day to 15th day
Procedure: The diabetes was induced in mice by giving alloxan i.p. as per the standard protocols. A single dose of alloxan (150 mg/kg) was given to mice and were kept on fasting for next 16 hours to induce diabetes. […] The animals with random blood glucose level of more than 200 mg/dl were selected for further studies. The animals with elevated blood glucose levels were divided into six groups having five albino mice in each group. Group I was given normal saline and was negative control. Group II was given Tween 80. Group III was the positive control and was given glibenclamide. The remaining groups were given different doses of the compounds. […]

[2] = system: α-amylase; assay: In-vitro α-amylase inhibition assay; format: biochemical; settings: for Alpha amylase Percent Inhibition (mean ± SEM): semi-purified fractions/isolated compounds series; for Percent Inhibition (mean ± SEM): crude extract/solvent fractions series
Procedure: The Bernfeld’s procedure was used to investigate in-vitro amylase inhibition. […] Ten minutes after incubation period, […] of 1% starch solution were applied to initiate the reaction and then incubated for 30 minutes at 37 °C. Then 20 μl of 1 M HCl and 75 μl of iodine solution were added to the 96 well plate, the absorbance of the solution was measured at 580 nm and inhibitory response of the -amylase enzyme was calculated using the following formula. Inhibition%=100control-test/control
(§1) The IC50s were determined using the same approach in free radical assays such as DPPH, ABTS, and H2O2.

[3] = system: albino mice; assay: Oral glucose tolerance test (OGTT); format: in vivo; settings: for OGTT 0 minutes / OGTT 30 minutes / OGTT 60 minutes / OGTT 120 minutes: oral; for OGTT 0 minutes: 0 minutes after glucose; for OGTT 30 minutes: 30 minutes after glucose; for OGTT 60 minutes: 60 minutes after glucose; for OGTT 120 minutes: 120 minutes after glucose
Procedure: In this experiment, the animals treated with control and treated groups were fasted overnight. To the albino mice, […] of glucose was administered against the standard glibenclamide. After the oral administration of glucose, the level of glucose in blood was checked at time intervals of 0, 30, 60 and 120 minutes for assessment of the effect of exogenously administered glucose-D on the treated albino mice. After the experiment, the OGTT was carried out for 5 days.

[4] = DPPH antioxidant assay; format: biochemical; settings: for DPPH Percent Scavenging / Percent Inhibition (mean ± SEM): semi-purified fractions/isolated compounds series
Procedure: For DPPH stock arrangement, […] dissolve in 100 ml of methanol and maintain at 20 °C for supplementary action. After this, 1000 micro litter was the standard absorbance set at 517 nm as utilized a control and afterward spread through aluminum foil for keeping in dark area for 1 day for the formation of radicals. […] The 2 ml solution of the examples were blended in with 2 ml of 2, 2-[…]-1-picryl-hydrazyl radical arrangement and saved for 15 m in obscurity zone. Following equation was utilized for the assurance of % DPPH restraint. %inhibition=A-B/A×100
A for absorbance of control and B are denoted for the absorbance of sample.
as §1

[5] = biological target: α-glucosidase (Saccharomyces cerevisiae, UniProt P53341); format: biochemical
Procedure: For the example planning initial 1200 μL of phosphate buffer put in test tube and included 100 μl of each concentrate which sequential weakened going from 9, 7, and 5 mg/ml. 200 μl of glycosidase (0.5 mg/11 ml refined H2O) was added to the test tube in addition to 0.2 ml of substrate arrangement (glucopyranoside 15 mg/10 ml refined water) was kept at 37 °C for 20 minutes.
For control, 1.2 ml of PO4 (phosphate buffer) was added to the test tube and furthermore included 200 μl catalyst arrangement and 200 μl of substrate arrangement (C7H14O6 (glucopyranoside) 15 mg/10 ml refined water) just as included 800 μl of Na2CO3 arrangement and was maintained for 20 minutes at 37 °C [32]. The retention of control and test was examined at 4.05e-7 m using the accompanying equation after the recommended time: %Inhibition=absorbanceofControl-absorbanceofSample/absorbanceofControl×100
as §1

[6] = ABTS free radicals scavenging assay; format: biochemical
Procedure: The ABTS analysis of plant’s samples was performed by standard systems. […] After amassing of the two solutions, they were saved in a hatchery at 30 °C for 15 m. The absorbance of the subsequent solution was estimated at 745 nm with photo-spectrometer again. Various weakening of ascorbic corrosive was then set up as certain controls as per a similar technique. The ABTS free extreme screening was examined by the accompanying recipe. Formula: %scavengingactivity=A-B/AX100 A used for the control while B represents sample absorbance.

[7] = H2O2 free radicals scavenging assay; format: biochemical
Procedure: The hydrogen peroxide antioxidant activity of test samples was evaluated by using protocol described. […] It was […] 0.6 mL hydrogen peroxide solution was applied to it. The absorbance of each plant sample was measured at 230 nm against the blank after 10 minutes. […] Hydrogenperoxidescavengingactivity=1-[…]×100 […]

[8] = dose 31.25 μg/kg, diabetic mice
[9] = dose 0.5 (μg/kg), diabetic mice

Chain of α-glucosidase (P53341 whole entry): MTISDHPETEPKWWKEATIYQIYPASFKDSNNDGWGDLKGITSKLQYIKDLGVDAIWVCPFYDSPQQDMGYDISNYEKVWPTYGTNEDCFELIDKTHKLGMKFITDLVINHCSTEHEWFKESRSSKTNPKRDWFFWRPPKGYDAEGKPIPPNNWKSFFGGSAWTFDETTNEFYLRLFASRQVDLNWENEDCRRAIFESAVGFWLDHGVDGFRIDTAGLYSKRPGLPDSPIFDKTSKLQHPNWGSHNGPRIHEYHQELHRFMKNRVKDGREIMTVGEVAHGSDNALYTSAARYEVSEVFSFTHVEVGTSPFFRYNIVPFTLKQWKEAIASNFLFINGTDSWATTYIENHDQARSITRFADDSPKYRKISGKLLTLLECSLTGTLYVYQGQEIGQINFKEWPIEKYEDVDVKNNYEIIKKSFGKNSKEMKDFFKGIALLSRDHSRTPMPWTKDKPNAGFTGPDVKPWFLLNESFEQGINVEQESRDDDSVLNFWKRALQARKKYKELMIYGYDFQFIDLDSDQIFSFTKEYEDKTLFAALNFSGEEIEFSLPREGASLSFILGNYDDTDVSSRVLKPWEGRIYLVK

Row | SMILES | Decrease in Blood Glucose ([1]; dose 31.25 μg/kg) [mg/dL] | Blood Glucose Level 0 day [1, 8] [mg/dL] | Blood Glucose Level 4th day [1, 8] [mg/dL] | Blood Glucose Level 7th day [1, 8] [mg/dL] | Blood Glucose Level 10th day [1, 8] [mg/dL] | Blood Glucose Level 15th day [1, 8] [mg/dL] | Decrease in Blood Glucose ([1]; dose 250 μg/kg) [mg/dL] | Blood Glucose Level 0 day ([1]; dose 250 μg/kg, diabetic mice) [mg/dL] | Blood Glucose Level 4th day ([1]; dose 250 μg/kg, diabetic mice) [mg/dL] | Blood Glucose Level 7th day ([1]; dose 250 μg/kg, diabetic mice) [mg/dL] | Alpha amylase Percent Inhibition (mean ± SEM) ([2]; 250 μg/ml) | Alpha amylase Percent Inhibition (mean ± SEM) ([2]; 500 μg/ml) | Alpha amylase Percent Inhibition (mean ± SEM) ([2]; 1000 μg/ml) | OGTT 0 minutes [3] [mg/dL] | OGTT 30 minutes [3] [mg/dL] | OGTT 60 minutes [3] [mg/dL] | OGTT 120 minutes [3] [mg/dL] | DPPH Percent Scavenging / Percent Inhibition (mean ± SEM) ([4]; 250 μg/ml) [%] | DPPH Percent Scavenging / Percent Inhibition (mean ± SEM) ([4]; 500 μg/ml) [%] | DPPH Percent Scavenging / Percent Inhibition (mean ± SEM) ([4]; 1000 μg/ml) [%] | further results
1 | C=CCc1cc2c(c(OC)c1OC)OCO2 [Comp 2, 6-allyl-4,5-dimethoxybenzo[d][1,3]dioxole] | 33 | 451 | 447 | 430 | 424 | 418 | 112 | 467 | 462 | 444 | 68.33 ± 0.49 % | 74.33 ± 1.20 % | 81.61 ± 1.70 % | 163.5 | 189.4 | 214.6 | 151.6 | 78.36 ± 0.84 | 82.35 ± 0.23 | 87.62 ± 0.58 | Change in body weight [1, 8]: −6.6 gm; Blood Glucose Level 10th day ([1]; dose 250 μg/kg, diabetic mice): 408 mg/dL; Blood Glucose Level 15th day ([1]; dose 250 μg/kg, diabetic mice): 355 mg/dL; Decrease in Blood Glucose ([1]; dose 500 μg/kg): 201 mg/dL; Blood Glucose Level 0 day ([1]; dose 500 μg/kg, diabetic mice): 457 mg/dL; Blood Glucose Level 4th day ([1]; dose 500 μg/kg, diabetic mice): 403 mg/dL; Blood Glucose Level 7th day ([1]; dose 500 μg/kg, diabetic mice): 362 mg/dL; Blood Glucose Level 10th day ([1]; dose 500 μg/kg, diabetic mice): 304 mg/dL; Blood Glucose Level 15th day ([1]; dose 500 μg/kg, diabetic mice): 256 mg/dL
2 | C[C@H]1O[C@H](O[C@H]2[C@H](O)[C@@H](O)[C@@H](O[C@H]3[C@H](O)[C@@H](O)C(O)O[C@@H]3CO)O[C@@H]2CO)[C@H](O)[C@@H](O)[C@@H]1N[C@H]1C=C(CO)[C@@H](O)[C@H](O)[C@H]1O (stereo partly shown) [Acarbose] |  |  |  |  |  |  |  |  |  |  | 77.08 ± 1.04% | 82.28 ± 1.94% | 87.49 ± 0.60% |  |  |  |  |  |  |  | Percent Inhibition (mean ± SEM) ([2]; 250 μg/ml): 70.08 ± 1.04%; Percent Inhibition (mean ± SEM) ([2]; 500 μg/ml): 76.28 ± 1.94%; Percent Inhibition (mean ± SEM) ([2]; 1000 μg/ml): 87.49 ± 0.60%; Alpha glucosidase Percent Inhibition (mean ± SEM) [5]: 89.50 ± 1.00% and 83.00 ± 0.00% and 77.50 ± 0.57% and 73.53 ± 0.55% and 67.63 ± 0.33%; Percent Inhibition (mean ± SEM) [5]: 75.50 ± 1.00% and 70.00 ± 0.00% and 64.50 ± 0.57% and 56.53 ± 0.55% and 51.63 ± 0.33%
3 | COc1ccc(Cl)cc1C(=O)NCCc1ccc(S(=O)(=O)NC(=O)NC2CCCCC2)cc1 [Glibenclamide, reference compound] |  |  |  |  |  |  |  |  |  |  |  |  |  | 151.3 | 176.5 | 214.1 | 140.7 |  |  |  | Decrease in Blood Glucose ([1]; dose 0.5 (μg/kg)): 274 mg/dL; Blood Glucose Level 0 day [1, 9]: 472 mg/dL; Blood Glucose Level 4th day [1, 9]: 302 mg/dL; Blood Glucose Level 7th day [1, 9]: 256 mg/dL; Blood Glucose Level 10th day [1, 9]: 211 mg/dL; Blood Glucose Level 15th day [1, 9]: 198 mg/dL
4 | O=C1O[C@H]([C@@H](O)CO)C(O)=C1O [Ascorbic acid] |  |  |  |  |  |  |  |  |  |  |  |  |  |  |  |  |  | 83.33 ± 0.88 | 87.84 ± 0.26 | 92.55 ± 0.35 | ABTS assay IC50 [6]: < 0.1 µg/mL; ABTS assay Percent Inhibition (mean ± SEM) ([6]; 250 μg/ml): 81.00 ± 1.06%; ABTS assay Percent Inhibition (mean ± SEM) ([6]; 500 μg/ml): 86.66 ± 0.66%; ABTS assay Percent Inhibition (mean ± SEM) ([6]; 1000 μg/ml): 87.83 ± 0.29%; DPPH assay Percent Inhibition (mean ± SEM) ([4]; 250 μg/ml, crude extract/solvent fractions series): 81.33 ± 0.88%; DPPH assay Percent Inhibition (mean ± SEM) ([4]; 500 μg/ml, crude extract/solvent fractions series): 87.84 ± 0.26%; DPPH assay Percent Inhibition (mean ± SEM) ([4]; 1000 μg/ml, crude extract/solvent fractions series): 92.55 ± 0.35%; DPPH assay IC50 ([4]; crude extract/solvent fractions series): < 0.1 µg/mL; H2O2 assay IC50 [7]: 12.63 µg/mL; H2O2 assay Percent Inhibition (mean ± SEM) ([7]; 250 μg/ml): 71.56 ± 0.49%; H2O2 assay Percent Inhibition (mean ± SEM) ([7]; 500 μg/ml): 74.03 ± 0.64%; H2O2 assay Percent Inhibition (mean ± SEM) ([7]; 1000 μg/ml): 82.43 ± 0.52%
5 | COc1cc(/C=C/CO)ccc1O [Comp 1, (E)-4-(3-hydroxyprop-1-en-1-yl)-2-methoxyphenol] | 36 | 415 | 407 | 398 | 381 | 379 | 205 | 420 | 394 | 345 | 74.90 ± 0.60^ns % | 79.45 ± 0.90^ns % | 85.23 ± 0.22^ns % | 165.6 | 194.6 | 211.4 | 160.1 | 80.48 ± 0.25 | 85.43 ± 1.39 | 89.24 ± 0.79 | Blood Glucose Level 10th day ([1]; dose 250 μg/kg, diabetic mice): 217 mg/dL; Blood Glucose Level 15th day ([1]; dose 250 μg/kg, diabetic mice): 215 mg/dL; Decrease in Blood Glucose ([1]; dose 500 μg/kg): 119 mg/dL; Blood Glucose Level 0 day ([1]; dose 500 μg/kg, diabetic mice): 411 mg/dL; Blood Glucose Level 4th day ([1]; dose 500 μg/kg, diabetic mice): 387 mg/dL; Blood Glucose Level 7th day ([1]; dose 500 μg/kg, diabetic mice): 371 mg/dL; Blood Glucose Level 10th day ([1]; dose 500 μg/kg, diabetic mice): 311 mg/dL; Blood Glucose Level 15th day ([1]; dose 500 μg/kg, diabetic mice): 292 mg/dL; blood glucose ([3]; after 120 minutes): 160 mg/dL
